Calls of active or inactive are those of the source. The calls are words filed in the database; no cut-off is given here.
What was measured:
[1] = molecular target: T1, Tyrosine-protein kinase JAK3 (Homo sapiens) (UniProt P52333); assay: Inhibition of JAK3 in human U-937 cells assessed as decrease in P-JAK3 phosphorylation at 200 uM pretreated for 10 hrs followed by compound washout by immunoblotting analysis; format: cell-based
T1 sequence (whole entry): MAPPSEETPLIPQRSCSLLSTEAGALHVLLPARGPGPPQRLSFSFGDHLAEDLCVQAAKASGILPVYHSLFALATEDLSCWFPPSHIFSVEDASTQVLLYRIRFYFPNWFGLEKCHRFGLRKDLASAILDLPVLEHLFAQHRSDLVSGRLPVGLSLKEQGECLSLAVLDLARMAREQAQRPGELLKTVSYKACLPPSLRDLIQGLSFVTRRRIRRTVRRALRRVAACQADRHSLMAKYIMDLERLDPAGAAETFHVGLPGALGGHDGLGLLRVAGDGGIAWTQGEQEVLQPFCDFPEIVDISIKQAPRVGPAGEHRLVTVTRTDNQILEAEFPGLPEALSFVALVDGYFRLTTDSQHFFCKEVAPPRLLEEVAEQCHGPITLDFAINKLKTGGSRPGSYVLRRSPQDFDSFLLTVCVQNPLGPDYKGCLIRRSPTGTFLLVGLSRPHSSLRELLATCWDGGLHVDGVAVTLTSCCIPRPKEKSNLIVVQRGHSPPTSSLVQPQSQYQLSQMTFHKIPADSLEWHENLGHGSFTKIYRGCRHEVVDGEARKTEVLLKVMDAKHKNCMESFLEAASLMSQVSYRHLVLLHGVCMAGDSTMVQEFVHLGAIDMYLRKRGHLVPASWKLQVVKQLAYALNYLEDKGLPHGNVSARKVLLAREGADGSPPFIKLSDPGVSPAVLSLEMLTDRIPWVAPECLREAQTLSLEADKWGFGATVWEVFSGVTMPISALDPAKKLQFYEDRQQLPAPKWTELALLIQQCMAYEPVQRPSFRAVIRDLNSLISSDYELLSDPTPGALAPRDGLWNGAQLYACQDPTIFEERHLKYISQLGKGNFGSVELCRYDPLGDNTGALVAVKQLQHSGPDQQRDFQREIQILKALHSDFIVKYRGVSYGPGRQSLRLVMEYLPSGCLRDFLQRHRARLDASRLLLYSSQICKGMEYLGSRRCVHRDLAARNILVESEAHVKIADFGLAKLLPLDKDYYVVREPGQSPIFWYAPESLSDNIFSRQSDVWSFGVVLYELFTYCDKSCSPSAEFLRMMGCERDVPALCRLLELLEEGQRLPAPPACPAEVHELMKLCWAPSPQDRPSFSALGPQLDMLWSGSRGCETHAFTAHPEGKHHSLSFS

[2] = molecular target: NUAK family SNF1-like kinase 1 (Homo sapiens, UniProt O60285); assay: Inhibition of human ARK5
Chain of NUAK family SNF1-like kinase 1 (O60285 whole entry): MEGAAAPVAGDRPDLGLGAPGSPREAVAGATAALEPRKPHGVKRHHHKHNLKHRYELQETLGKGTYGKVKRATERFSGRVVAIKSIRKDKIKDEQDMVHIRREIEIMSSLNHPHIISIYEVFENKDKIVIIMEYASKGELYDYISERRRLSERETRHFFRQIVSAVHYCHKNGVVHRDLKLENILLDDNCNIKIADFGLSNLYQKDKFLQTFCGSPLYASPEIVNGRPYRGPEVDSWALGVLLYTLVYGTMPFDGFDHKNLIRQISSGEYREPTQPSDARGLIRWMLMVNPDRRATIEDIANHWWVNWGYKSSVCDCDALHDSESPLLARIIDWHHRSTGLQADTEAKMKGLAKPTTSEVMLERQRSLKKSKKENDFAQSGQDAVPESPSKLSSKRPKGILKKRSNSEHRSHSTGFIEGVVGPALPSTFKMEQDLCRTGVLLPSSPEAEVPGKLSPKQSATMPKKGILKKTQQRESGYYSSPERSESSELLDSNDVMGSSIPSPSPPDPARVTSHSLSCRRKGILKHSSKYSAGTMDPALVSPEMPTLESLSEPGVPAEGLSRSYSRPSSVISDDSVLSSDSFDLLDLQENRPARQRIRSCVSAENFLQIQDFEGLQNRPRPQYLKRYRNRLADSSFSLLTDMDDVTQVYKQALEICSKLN

[3] = system: U-937; assay: Induction of cell cycle arrest in human U-937 cells assessed as accumulation at S phase at 3.7 nM measured after 24 hrs by propidium iodide staining based flow cytometric analysis (reference value: 15.35%); format: functional
[4] = molecular target: Receptor-type tyrosine-protein kinase FLT3 (Homo sapiens, UniProt P36888); assay: Inhibition of human FLT3
Chain of Receptor-type tyrosine-protein kinase FLT3 (P36888 whole entry): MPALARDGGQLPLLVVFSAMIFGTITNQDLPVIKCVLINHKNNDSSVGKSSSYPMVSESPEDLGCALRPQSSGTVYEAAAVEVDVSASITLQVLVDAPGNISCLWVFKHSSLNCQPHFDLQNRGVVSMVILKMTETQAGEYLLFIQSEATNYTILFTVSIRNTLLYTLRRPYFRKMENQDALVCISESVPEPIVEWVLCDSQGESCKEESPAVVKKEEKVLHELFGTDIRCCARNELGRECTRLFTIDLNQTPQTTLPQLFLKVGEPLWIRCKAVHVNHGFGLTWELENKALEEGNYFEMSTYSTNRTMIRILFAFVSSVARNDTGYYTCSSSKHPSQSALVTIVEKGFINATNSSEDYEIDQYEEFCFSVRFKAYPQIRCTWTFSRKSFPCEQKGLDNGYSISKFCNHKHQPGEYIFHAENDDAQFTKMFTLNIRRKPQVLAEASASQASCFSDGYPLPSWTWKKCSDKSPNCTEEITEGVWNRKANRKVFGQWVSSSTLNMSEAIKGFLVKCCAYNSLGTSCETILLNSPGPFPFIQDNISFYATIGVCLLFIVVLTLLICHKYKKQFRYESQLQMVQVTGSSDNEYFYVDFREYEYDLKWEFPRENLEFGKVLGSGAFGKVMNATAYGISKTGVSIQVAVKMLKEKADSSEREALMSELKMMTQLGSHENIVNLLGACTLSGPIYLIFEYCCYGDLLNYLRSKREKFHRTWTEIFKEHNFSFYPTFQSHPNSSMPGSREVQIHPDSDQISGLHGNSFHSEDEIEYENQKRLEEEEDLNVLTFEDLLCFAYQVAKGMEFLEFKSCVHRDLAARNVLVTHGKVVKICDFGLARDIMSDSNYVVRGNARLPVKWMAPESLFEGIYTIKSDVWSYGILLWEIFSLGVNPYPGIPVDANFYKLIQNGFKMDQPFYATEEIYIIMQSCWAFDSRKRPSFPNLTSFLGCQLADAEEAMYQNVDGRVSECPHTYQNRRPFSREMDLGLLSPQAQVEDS

[5] = system: U-937; assay: Induction of cell cycle arrest in human U-937 cells assessed as downregulation of Cyclic B1 at 0 to 300 nM measured after 24 hrs by western blot analysis; format: functional, cell-based; settings: dose 0-300 nM
[6] = system: BaF3; assay: cells; settings: Mus musculus, BaF3, 72 h
[7] = molecular target: Tyrosine-protein kinase Tec (Homo sapiens) (UniProt P42680); assay: Inhibition of TEC (unknown origin) at 0.5 uM assessed as competition rate relative to control
Chain of Tyrosine-protein kinase Tec (Homo sapiens) (P42680 whole entry): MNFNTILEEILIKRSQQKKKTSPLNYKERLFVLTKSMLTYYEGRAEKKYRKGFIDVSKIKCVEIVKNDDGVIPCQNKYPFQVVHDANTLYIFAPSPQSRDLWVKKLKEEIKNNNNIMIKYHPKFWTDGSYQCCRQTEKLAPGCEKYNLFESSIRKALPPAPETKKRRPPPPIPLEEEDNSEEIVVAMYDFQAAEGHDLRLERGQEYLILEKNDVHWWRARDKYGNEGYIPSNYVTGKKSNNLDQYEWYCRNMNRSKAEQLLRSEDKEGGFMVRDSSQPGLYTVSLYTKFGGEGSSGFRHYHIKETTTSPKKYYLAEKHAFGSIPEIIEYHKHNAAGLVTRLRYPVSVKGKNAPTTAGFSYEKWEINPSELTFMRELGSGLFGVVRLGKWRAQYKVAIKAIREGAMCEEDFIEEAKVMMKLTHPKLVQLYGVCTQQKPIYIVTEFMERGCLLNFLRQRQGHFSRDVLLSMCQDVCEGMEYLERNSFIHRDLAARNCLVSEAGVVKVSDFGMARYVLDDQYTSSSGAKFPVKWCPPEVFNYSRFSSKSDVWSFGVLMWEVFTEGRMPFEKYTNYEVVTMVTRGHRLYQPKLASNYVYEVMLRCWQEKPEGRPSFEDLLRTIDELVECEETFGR

[8] = system: U-937; assay: Induction of cell cycle arrest in human U-937 cells assessed as accumulation at G2/M phase at 100 nM measured after 24 hrs by propidium iodide staining based flow cytometric analysis (reference value: 21.41%); format: functional
[9] = system: U-937; assay: Induction of cell cycle arrest in human U-937 cells assessed as accumulation at G2/M phase at 300 nM measured after 24 hrs by propidium iodide staining based flow cytometric analysis (reference value: 21.41%); format: functional
[10] = molecular target: Signal transducer and activator of transcription 3 (Homo sapiens) (UniProt P40763); assay: Inhibition of STAT3 activation in human U-937 cells assessed as decrease in P-STAT3 at 100 uM by Western blot analysis; format: cell-based; settings: time 0-24 hrs, TDE = time-dependent effect
[11] = molecular target: T1, Tyrosine-protein kinase JAK3 (Homo sapiens); assay: Inhibition of JAK3 activation in human U-937 cells assessed as decrease in P-STAT5 at 100 uM by Western blot analysis; format: cell-based; settings: time 0-24 hrs, TDE = time-dependent effect
[12] = molecular target: NUAK family SNF1-like kinase 1 (Homo sapiens) (UniProt O60285); assay: Inhibition of human ARK5 at 0.5 uM relative to control
Chain of NUAK family SNF1-like kinase 1 (Homo sapiens) (O60285 whole entry): as the sequence (O60285 whole entry) above

[13] = molecular target: Epidermal growth factor receptor (Homo sapiens) (UniProt P00533); assay: Inhibition of EGFR (unknown origin) at 0.5 uM relative to control
[14] = Cmax in 12 hr fasted SPF Sprague-Dawley rat at 5 mg/kg, iv upon 2 hrs fasting post-administration measured upto 24 hrs; format: ADME, organism-based; parameters: dose 5 mg/kg, time < 24 hrs, route iv; settings: in vivo
[15] = Clearance in 12 hr fasted SPF Sprague-Dawley rat at 5 mg/kg, iv upon 2 hrs fasting post-administration measured upto 24 hrs; format: ADME, organism-based; settings: in vivo
[16] = AUC(0 to infinity) in 12 hr fasted SPF Sprague-Dawley rat at 15 mg/kg, po upon 2 hrs fasting post-administration upto 24 hrs; format: ADME, organism-based; parameters: dose 15 mg/kg, time < 24 hrs, route po; settings: in vivo
[17] = system: U-937; assay: Antitumor activity against human U-937 cells xenografted in po dosed CB17-SCID mouse assessed as tumor growth inhibition twice daily for 10 days; format: functional, organism-based; settings: time 10.0 day, DDE = dose-dependent effect
[18] = molecular target: Tyrosine-protein kinase BTK (Homo sapiens) (UniProt Q06187); assay: Inhibition of BTK (unknown origin) at 0.5 uM relative to control
Chain of Tyrosine-protein kinase BTK (Homo sapiens) (Q06187 whole entry): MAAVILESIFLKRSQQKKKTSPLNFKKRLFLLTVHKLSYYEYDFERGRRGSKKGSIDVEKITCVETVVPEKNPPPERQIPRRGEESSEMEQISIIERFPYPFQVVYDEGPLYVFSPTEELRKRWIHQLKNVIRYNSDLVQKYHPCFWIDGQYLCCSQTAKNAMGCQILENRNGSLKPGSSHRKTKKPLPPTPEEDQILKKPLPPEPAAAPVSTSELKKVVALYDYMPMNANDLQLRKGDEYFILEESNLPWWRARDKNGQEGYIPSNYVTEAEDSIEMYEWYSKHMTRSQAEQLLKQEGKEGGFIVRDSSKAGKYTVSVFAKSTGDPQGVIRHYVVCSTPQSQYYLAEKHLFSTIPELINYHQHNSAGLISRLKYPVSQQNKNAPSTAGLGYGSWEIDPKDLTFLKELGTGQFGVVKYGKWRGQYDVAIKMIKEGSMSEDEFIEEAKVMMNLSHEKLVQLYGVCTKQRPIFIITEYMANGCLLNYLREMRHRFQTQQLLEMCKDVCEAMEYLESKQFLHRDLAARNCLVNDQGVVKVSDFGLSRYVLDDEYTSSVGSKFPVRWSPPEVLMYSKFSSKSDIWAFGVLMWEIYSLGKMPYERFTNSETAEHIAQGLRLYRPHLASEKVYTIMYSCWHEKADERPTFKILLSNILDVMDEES

[19] = molecular target: T2, Tyrosine-protein kinase JAK1 (Homo sapiens, UniProt P23458); assay: Inhibition of human JAK1
T2 sequence (P23458 whole entry): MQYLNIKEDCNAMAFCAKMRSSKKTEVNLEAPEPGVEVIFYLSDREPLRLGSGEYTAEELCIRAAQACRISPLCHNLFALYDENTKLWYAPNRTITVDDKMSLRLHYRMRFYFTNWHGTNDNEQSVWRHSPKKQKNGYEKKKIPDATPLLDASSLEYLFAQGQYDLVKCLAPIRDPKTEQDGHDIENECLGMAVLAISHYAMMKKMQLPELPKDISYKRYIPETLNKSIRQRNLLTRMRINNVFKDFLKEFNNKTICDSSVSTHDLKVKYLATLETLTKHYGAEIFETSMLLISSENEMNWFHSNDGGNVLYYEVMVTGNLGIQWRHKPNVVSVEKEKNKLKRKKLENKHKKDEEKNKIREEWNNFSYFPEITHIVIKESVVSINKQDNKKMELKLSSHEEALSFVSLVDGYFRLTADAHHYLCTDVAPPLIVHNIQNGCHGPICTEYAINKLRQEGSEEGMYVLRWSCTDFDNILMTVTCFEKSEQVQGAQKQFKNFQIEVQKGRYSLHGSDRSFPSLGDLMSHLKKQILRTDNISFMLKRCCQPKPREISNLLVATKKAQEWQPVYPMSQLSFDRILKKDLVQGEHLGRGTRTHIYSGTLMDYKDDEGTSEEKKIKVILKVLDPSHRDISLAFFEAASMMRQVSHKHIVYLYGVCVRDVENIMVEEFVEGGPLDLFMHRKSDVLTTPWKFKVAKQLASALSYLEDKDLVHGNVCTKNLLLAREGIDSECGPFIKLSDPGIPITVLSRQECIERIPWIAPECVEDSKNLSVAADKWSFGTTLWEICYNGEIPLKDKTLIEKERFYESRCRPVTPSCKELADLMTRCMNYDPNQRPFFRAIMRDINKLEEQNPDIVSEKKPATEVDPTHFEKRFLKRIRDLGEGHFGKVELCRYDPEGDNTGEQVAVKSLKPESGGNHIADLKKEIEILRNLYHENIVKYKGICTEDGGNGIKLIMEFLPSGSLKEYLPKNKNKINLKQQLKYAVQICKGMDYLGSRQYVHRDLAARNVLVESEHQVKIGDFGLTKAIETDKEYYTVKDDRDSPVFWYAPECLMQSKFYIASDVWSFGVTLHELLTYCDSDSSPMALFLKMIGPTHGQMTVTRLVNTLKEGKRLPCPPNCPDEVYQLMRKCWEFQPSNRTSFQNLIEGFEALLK

[20] = molecular target: T2, Tyrosine-protein kinase JAK1; assay: Inhibition of human JAK1 at 0.5 uM relative to control
[21] = system: U-937; assay: Induction of cell cycle arrest in human U-937 cells assessed as accumulation at S phase at 300 nM measured after 24 hrs by propidium iodide staining based flow cytometric analysis (reference value: 15.35%); format: functional
[22] = system: U-937; assay: Induction of cell cycle arrest in human U-937 cells assessed as accumulation at G2/M phase at 3.7 nM measured after 24 hrs by propidium iodide staining based flow cytometric analysis (reference value: 21.41%); format: functional
[23] = system: U-937; assay: Induction of cell cycle arrest in human U-937 cells assessed as downregulation of CDK6 at 0 to 300 nM measured after 24 hrs by western blot analysis; format: functional, cell-based; settings: dose 0-300 nM
[24] = molecular target: Tyrosine-protein kinase Blk (Homo sapiens) (UniProt P51451); assay: Inhibition of BLK (unknown origin) at 0.5 uM assessed as competition rate relative to control
Chain of Tyrosine-protein kinase Blk (Homo sapiens) (P51451 2-505 limits assumed): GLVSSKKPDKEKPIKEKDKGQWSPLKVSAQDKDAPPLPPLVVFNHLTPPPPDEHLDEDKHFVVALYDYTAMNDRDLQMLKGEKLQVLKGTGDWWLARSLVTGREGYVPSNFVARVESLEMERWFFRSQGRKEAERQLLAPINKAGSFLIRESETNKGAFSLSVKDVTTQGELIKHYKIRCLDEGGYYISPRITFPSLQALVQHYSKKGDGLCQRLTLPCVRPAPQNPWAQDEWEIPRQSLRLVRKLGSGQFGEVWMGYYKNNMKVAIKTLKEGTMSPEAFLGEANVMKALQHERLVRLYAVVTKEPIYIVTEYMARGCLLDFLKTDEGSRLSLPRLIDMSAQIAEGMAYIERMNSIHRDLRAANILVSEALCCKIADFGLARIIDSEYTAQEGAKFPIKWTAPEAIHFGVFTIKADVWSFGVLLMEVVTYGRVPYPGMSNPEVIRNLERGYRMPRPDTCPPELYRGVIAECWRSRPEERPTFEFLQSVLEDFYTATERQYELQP

[25] = molecular target: [Pyruvate dehydrogenase (acetyl-transferring)] kinase isozyme 1, mitochondrial (Homo sapiens) (UniProt Q15118); assay: Inhibition of PDK1 (unknown origin) at 0.5 uM relative to control

Question: For `C=CC(=O)Nc1cc(Nc2ncc(Cl)c(O[C@@H]3CO[C@H]4[C@@H]3OC[C@H]4OC)n2)ccc1N(C)CCN(C)C`, which inhibition [1] is on record?
Answer: Its inhibition is “Active”.

Question: What about the IC50 [2] of the same compound?
Answer: The IC50 was 25 nM.

Question: And the Activity [3]?
Answer: Its Activity is 15.23%.

Question: And the IC50 [4]?
Answer: Its IC50 is 132 nM.

Question: What about the Activity [5] of the same compound?
Answer: Its Activity is “Active”.

Question: What about the IC50 [6] of the same compound?
Answer: Its IC50 is 134 nM.

Question: What about the inhibition [7] of the same compound?
Answer: Its inhibition is 40%.

Question: And the Activity [8]?
Answer: Its Activity is 17.86%.

Question: What about the Activity [9] of the same compound?
Answer: The Activity was 15.33%.

Question: What about the inhibition [10] of the same compound?
Answer: Its inhibition is “Tde”.

Question: What about the inhibition [11] of the same compound?
Answer: Its inhibition is “Tde”.

Question: And the inhibition [12]?
Answer: Its inhibition is 11%.

Question: What about the inhibition [13] of the same compound?
Answer: The inhibition was 94%.

Question: What about the Cmax [14] of the same compound?
Answer: Its Cmax is 911 ng/mL.

Question: What about the CL [15] of the same compound?
Answer: Its CL is 155.22%.

Question: What about the AUC(0-inf) [16] of the same compound?
Answer: Its AUC(0-inf) is 334 ng·h/mL.

Question: What about the Activity [17] of the same compound?
Answer: Its Activity is “Dde”.

Question: What about the inhibition [18] of the same compound?
Answer: The inhibition was 114%.

Question: And the IC50 [19]?
Answer: The IC50 was 4730 nM.

Question: What about the inhibition [20] of the same compound?
Answer: Its inhibition is 84%.

Question: What about the Activity [21] of the same compound?
Answer: The Activity was 7.5%.

Question: And the Activity [22]?
Answer: The Activity was 23.11%.

Question: What about the Activity [23] of the same compound?
Answer: Its Activity is “Active”.

Question: And the inhibition [24]?
Answer: Its inhibition is 40%.

Question: And the inhibition [25]?
Answer: Its inhibition is 111%.
